Assay results reported in paper PMC9084902, “Low-Molecular Weight Protamine Overcomes Chondroitin Sulfate Inhibition of Neural Regeneration” (Frontiers in Cell and Developmental Biology, 2022).
Entries after “also recorded” stand apart in the source; their conditions may differ.

Columns and labels:
[1] = test system: hippocampal neurons; experiment: neurite outgrowth on precoated plastic without aggrecan, hippocampal neurons; type: cell-based, Wistar rat; details: precoated 10 μg/ml on plastic, no aggrecan, 2 days; about 70 neurons/replicate; p < 0.0001, n = 7
Procedure: (§1) The cortex or hippocampus were obtained from 17 days-old Wistar rat embryos and transferred to ice-cold preparation solution. Neurons were further isolated exactly as described earlier in Sahu’s publication ([Sahu et al., 2019]). Primary rat cortical or hippocampal neurons (E17 Wistar rats) were cultured in 96-well plates at the density of 20000 cells/well in Neurobasal medium supplemented with B27 serum substitute, penicillin, streptomycin and L-glutamate for 2 days in vitro (DIV). The plates were precoated with aggrecan (5 ug/ml, 150 µl/well). Protamine or protamine peptides were added to the culture medium at different concentrations. To analyze the effect of protamine or its fragment on neurite outgrowth, the plates were coated with 10 μg/ml of protamine or LMWP. For the experiment with chondroitinase, the aggrecan-coated plates were treated with chondroitinase ABC (Amsbio AMS. E1028, lot CF0029) for 4 h followed by 2 times washing with PBS before cell plating, and the cell culture imaging was carried out after 3 DIV incubation with 4 uM LMWP added to the medium. Neurite outgrowth was imaged with phase contrast microscopy (Olympus IX70 microscope and Retiga 2000R digital camera) using both x10 and x20 objectives. […] Neurite length was measured with ImageJ software and averaged from 2 to 3 independent experiments with 1–2 technical replicas in each independent experiment.

[2] = test system: cortical neurons; experiment: neurite outgrowth on chondroitinase ABC-treated aggrecan substrate, cortical neurons; type: cell-based, Wistar rat; details: ChABC 4 h, 4 µM LMWP in medium, 3 DIV; p = 0.012, unpaired t-test, n = 6; Figure 5B
Procedure: as §1

[3] = test system: NF200+ fibers in trauma hemisphere of spinal cord; experiment: NF200 immunohistochemistry, C5 hemicontusion, subcutaneous delivery; type: in vivo, C57BL6/NHsd mouse; details: 16 µg s.c. daily 49 days
Procedure: (§2) The effectiveness of systemically delivered LMWP in treatment of spinal cord trauma was tested in the cervical hemicontusion model (Figure 1B). Baseline behavior was assessed 1 week before the trauma surgery, and the results were used for balanced distribution of animals to the 3 experimental groups (“sham”, “trauma + PBS” and “trauma + LMWP”). Each housing cage contained animals from all three groups. Subcutaneous injections to the back area were started on the next day after the trauma and continued daily for 49 days. LMWP was injected subcutaneously at the 16 µg dose in 200 µl of sterile PBS. The groups “sham” and “trauma + PBS” got the same volume of PBS. Behavioral assessment was started 2 weeks after the trauma and finished at the week 12.
The samples for immunohistochemistry (IHC) were taken from all animals tested in the hemicontusion study with subcutaneous 7 weeks treatment (Figure 1B) at the end of the experiment at 12 weeks (Figure 1B). The cervical spinal cord segments were sectioned into 40 microns thick transverse sections from tissue blocks (samples embedded into solid OCT compound by freezing with dry ice) by using microtome (Leica CM3050 S). Few spinal cord samples were excluded from the study due to technical problems in spinal cord dissection or sectioning procedures, and the total amount of 11 spinal cords of the “trauma + PBS” and 7 spinal cords of the “trauma + LMWP” group were analyzed. Every fourth section per animal was chosen for IHC neurofilament staining making the section interval […]. The sections were stained with primary antibodies against NF200 (ab8135, Abcam, 1:500) in blocking buffer (1xTBS with 0.5% TX-100 and with 3%BSA) and AlexaFluor 594 (REF A11037, Invitrogen) secondary antibodies at the dilution 1:400 in TBS-T (1xTBS with 0.5% TX-100) on microscope slides. The washings prior to and between the stainings were done with TBS-T, whereas the final wash before mounting with Vectastain mounting medium with DAPI, was done by using reverse osmose water. […]

[4] = test system: mouse cervical hemicontusion model; experiment: cylinder test, C5 hemicontusion, subcutaneous delivery; type: in vivo, C57BL6/NHsd mouse; details: 16 µg s.c. daily 49 days; n = 7–13; difference not statistically significant
Procedure: as §2
The mouse was placed into the glass cylinder of 13 cm in diameter and 15 cm high. A mirror was positioned at the angle behind the cylinder for better observation. The mouse was videotaped for the first 20 exploratory vertical rearings or for 5 min. The number of rearings in which the mouse used the right (impaired), the left or both limbs for support against the wall was measured. Paw preference was calculated as the ratio of total number of left limb use (left + both) to total number of right (impaired) limb use (right + both). A trial with less than 5 rearings within 5 min was excluded from the analysis.

Sequence: VSRRRRRRGGRRRR [LMWP, low-molecular weight protamine]
- total neurite length versus uncoated control [1]: increased the total neurite length as compared to the parallel control cultures
- effect of CS digestion of aggrecan by chondroitinase ABC on LMWP-induced neurite outgrowth [2]: significantly decreased the neurite outgrowth-promoting effect of LMWP; also recorded: abolished the activity of LMWP to enhance neurite outgrowth
- NF200+ signal area near trauma epicenter versus PBS ([3]; 60 µm rostral, p = 0.0064, no similar trend in the sections around): significant difference of the NF200+ signal area in one section level localized almost in the middle of the trauma epicenter
- area of NF200+ signal on trauma periphery versus PBS ([3]; about ±400 µm from epicenter: 400 µm rostral p = 0.0021, −400 µm caudal p = 0.0346, Mann-Whitney, n = 7–11): increased the area of the NF200+ signal in the section levels located on the trauma periphery
- NF200+ fibers (%) in trauma hemisphere, LMWP versus control group ([3]; week 12, n = 7–11): statistically significant group difference between the LMWP-treated mice and the control mice in NF200+ fibers (%)
- front paw use asymmetry versus PBS [4]: tendency for better improvement of the LMWP group compared to the PBS group although the difference was not statistically significant
